# Results as given in PubChem BioAssay AID1259408 (Genetic Toxicology Data Bank (GENE-TOX), 2018).
# Activity calls are given as the source filed them. No rule for the calls is given here.
# Tested on: GENE-TOX genotoxicity assays, various organisms and cells
# Assay: GENE-TOX mutagenicity studies
# Conditions: for call: Assay Type: In vivo carcinogenicity studies
# Source text: GENE-TOX provides genetic toxicology (mutagenicity) test data from expert peer review of open scientific literature for more than 3,000 chemicals from the United States Environmental Protection Agency (EPA). GENE-TOX was established to select assay systems for evaluation, review data in the scientific literature, and recommend proper testing protocols and evaluation procedures for these systems.
# GENE-TOX covers the years 1991 - 1998. It is no longer updated.
# This is an archive assay for GENE-TOX mutagenicity studies.
# [1] = Species/Cell Type: Nonhuman, Assay Code: CCG+, Evaluation Type: Evaluation A (Pre-1980)
# [2] = Species/Cell Type: Salmonella typhimurium (one or more of the five standard strains: TA98, TA100, TA1535, TA1537, and TA1538), Assay Type: Histidine reverse gene mutation, Ames assay, Assay Code: SALT, Evaluation Type: Evaluation A (Pre-1980)
# [3] = Species/Cell Type: Mammalian polychromatic erythrocytes, Assay Type: Micronucleus test, chromosome aberrations, Assay Code: MNT+, Evaluation Type: Evaluation B (Post-1980)
# [4] = Species/Cell Type: Saccharomyces cerevisiae, Assay Type: Mitotic recombination or gene conversion, Assay Code: YEH-, Evaluation Type: Evaluation A (Pre-1980)
# [5] = Species/Cell Type: Salmonella typhimurium (one or more of the five standard strains: TA98, TA100, TA1535, TA1537, and TA1538), Assay Type: Histidine reverse gene mutation, Ames assay, Assay Code: SAL+, Evaluation Type: Evaluation A (Pre-1980)
# [6] = Species/Cell Type: Human lymphocytes, Assay Type: Sister-chromatid exchange (SCE) in vitro, Assay Code: SCL+D, Dose Response: With dose response, Evaluation Type: Evaluation B (Post-1980)
# [7] = Species/Cell Type: Human, Assay Type: Sister-chromatid exchange (SCE) in vitro, Assay Code: SC1+D, Dose Response: With dose response, Evaluation Type: Evaluation B (Post-1980)
# [8] = Species/Cell Type: Nonhuman, Assay Code: CCGT, Evaluation Type: Evaluation A (Pre-1980)
# [9] = Species/Cell Type: Nonhuman, Assay Type: Sister-chromatid exchange (SCE) in vitro, Assay Code: SC2+, Evaluation Type: Evaluation A (Pre-1980)
# [10] = Species/Cell Type: Escherichia coli polA (W3119 vs P3478), Assay Type: Rec-assay, DNA effects (bacterial DNA repair), Assay Code: RE1T, Evaluation Type: Evaluation A (Pre-1980)
compound,measurement,setting,value
O=NN1CCC[C@H]1c1cccnc1,call,[1],active; positive
same,mutagenic call,"Species/Cell Type: Rat primary hepatocytes, Assay Type: Unscheduled DNA synthesis (UDS) in vitro, DNA effects, Assay Code: UDP+, Evaluation Type: Evaluation A (Pre-1980)",active; positive
CCCCCCCC/C=C/CCCCCCCC(=O)OCCOCC(OCCO)C1OCC(OCCO)C1OCCO (configuration not stated),mutagenic call,"Species/Cell Type: Human lymphocytes, Assay Type: Sister-chromatid exchange (SCE) in vitro, Assay Code: SCLT, Evaluation Type: Evaluation B (Post-1980)",no conclusion
same,mutagenic call,"Species/Cell Type: Human, Assay Type: Sister-chromatid exchange (SCE) in vitro, Assay Code: SC1T, Evaluation Type: Evaluation B (Post-1980)",no conclusion
Cc1c(F)c2ccccc2c2ccc3ccccc3c12,mutagenic call,[2],no conclusion
CCCN(CCCCO)N=O,mutagenic call,"Species/Cell Type: Salmonella typhimurium (one or more of the five standard strains: TA98, TA100, TA1535, TA1537, and TA1538), Assay Type: Histidine reverse gene mutation, Ames assay, Assay Code: SAL+*, Activation: With metabolic activation, Evaluation Type: Evaluation A (Pre-1980)",active; positive
CCCCOCCOCCOCc1cc2c(cc1CCC)OCO2,call,"Species/Cell Type: Nonhuman, Assay Code: CCG-L, Evaluation Type: Evaluation A (Pre-1980)",inactive; negative
Nc1ccc(S(=O)(=O)Nc2nccs2)cc1,mutagenic call,"Species/Cell Type: Arabidopsis species, Assay Type: Gene mutation, Assay Code: ARM-, Evaluation Type: Evaluation A (Pre-1980)",inactive; negative
S=[Se]=S,call,[1],active; positive
CCCCOCC1CO1 (configuration not stated),mutagenic call,[3],active; positive
CC[n+]1c(-c2ccccc2)c2cc(N)ccc2c2ccc(N)cc21,mutagenic call,"Species/Cell Type: Chinese hamster ovary (CHO) cells, Assay Type: Forward gene mutation at the HPRT locus, Assay Code: CHO+, Evaluation Type: Evaluation B (Post-1980)",active; positive
same,mutagenic call,"Species/Cell Type: Escherichia coli polA (W3119 vs P3478), Assay Type: Rec-assay, DNA effects (bacterial DNA repair), Assay Code: RE1+, Evaluation Type: Evaluation A (Pre-1980)",active; positive
same,mutagenic call,"Species/Cell Type: Mammalian cell culture, nonhuman, Assay Type: Micronucleus test in vitro, chromosome aberrations, Assay Code: MN&+, Evaluation Type: Evaluation A (Pre-1980)",active; positive
same,mutagenic call,"Species/Cell Type: Mammalian germ cells, Sex: Male, Assay Type: Chromosome aberrations in vivo, Assay Code: CY9T, Evaluation Type: Evaluation A (Pre-1980)",no conclusion
same,mutagenic call,"Species/Cell Type: Mouse, Sex: Male, Assay Type: Sperm morphology, Assay Code: SPI-, Evaluation Type: Evaluation A (Pre-1980)",inactive; negative
same,mutagenic call,"Species/Cell Type: Saccharomyces cerevisiae, Assay Type: Mitotic recombination or gene conversion, Assay Code: YEC-, Evaluation Type: Evaluation A (Pre-1980)",inactive; negative
same,mutagenic call,[4],inactive; negative
same,mutagenic call,"Species/Cell Type: Saccharomyces cerevisiae, Assay Type: Reverse gene mutation, Assay Code: YER-, Evaluation Type: Evaluation A (Pre-1980)",inactive; negative
same,mutagenic call,[5],active; positive
same,mutagenic call,"Species/Cell Type: Syrian hamster embryo (SA7/SHE) cells, Assay Type: Cell transformation, viral enhanced, Assay Code: CT7-, Evaluation Type: Evaluation A (Pre-1980)",inactive; negative
CN(C)CCCN1c2ccccc2Sc2ccc(Cl)cc21,mutagenic call,"Species/Cell Type: Chinese hamster lung (V79) cells, Assay Type: Forward gene mutation at the HPRT or ouabain locus, Assay Code: V79-, Evaluation Type: Evaluation A (Pre-1980)",inactive; negative
same,mutagenic call,[6],active; positive
same,mutagenic call,[7],active; positive
same,call,[8],no conclusion
same,mutagenic call,"Species/Cell Type: Nonhuman, Assay Type: Sister-chromatid exchange (SCE) in vitro, Assay Code: SC2+D, Dose Response: With dose response, Evaluation Type: Evaluation A (Pre-1980)",active; positive
same,mutagenic call,"Species/Cell Type: Nonhuman, Assay Type: Sister-chromatid exchange (SCE) in vivo, Assay Code: SC3T, Evaluation Type: Evaluation B (Post-1980)",no conclusion
O=CNc1nc(-c2ccc([N+](=O)[O-])[nH]2)cs1,mutagenic call,[2],no conclusion
O=C(CCN1CCCC1)c1ccc2c(c1)OCO2,mutagenic call,"Species/Cell Type: Salmonella typhimurium, Assay Type: Forward and reverse gene mutation, host-mediated assay, Assay Code: HMA-, Evaluation Type: Evaluation A (Pre-1980)",inactive; negative
CO[C@H](C)[C@](O)(C(=O)OCC1=CCN2CC[C@H](O)[C@@H]12)C(C)C,mutagenic call,"Species/Cell Type: Allium cepa, Assay Type: Chromosome aberrations, Assay Code: ALC+D, Dose Response: With dose response, Evaluation Type: Evaluation A (Pre-1980)",active; positive
same,mutagenic call,"Species/Cell Type: Aspergillus nidulans, Assay Type: Forward gene mutation, Assay Code: ASF+, Evaluation Type: Evaluation A (Pre-1980)",active; positive
same,mutagenic call,"Species/Cell Type: Drosophila melanogaster, Assay Type: Aneuploidy, sex chromosome gain, chromosome aberrations, Assay Code: DAGT, Evaluation Type: Evaluation A (Pre-1980)",no conclusion
same,mutagenic call,"Species/Cell Type: Drosophila melanogaster, Assay Type: Aneuploidy, whole sex chromosome loss, chromosome aberrations, Assay Code: DAC+M, Evaluation Type: Evaluation A (Pre-1980)",active; positive
same,mutagenic call,"Species/Cell Type: Drosophila melanogaster, Assay Type: Sex-linked recessive lethal gene mutation, Assay Code: SRL+, Evaluation Type: Evaluation A (Pre-1980)",active; positive
same,mutagenic call,"Species/Cell Type: Drosophila melanogaster, Sex: Male, Assay Type: Heritable translocation test, chromosome aberrations, Assay Code: DHTT, Evaluation Type: Evaluation A (Pre-1980)",no conclusion
same,mutagenic call,[3],active; positive
same,mutagenic call,"Species/Cell Type: Nonhuman, Assay Type: Sister-chromatid exchange (SCE) in vitro, Assay Code: SC2+D, Dose Response: With dose response, Evaluation Type: Evaluation B (Post-1980)",active; positive
Nc1nc(-c2cc([N+](=O)[O-])c[nH]2)cs1,mutagenic call,[2],no conclusion
CCCCNCCCC,mutagenic call,"Species/Cell Type: Nonhuman, Assay Type: Chromosome aberrations in vitro, Assay Code: CY&+D, Dose Response: With dose response, Evaluation Type: Evaluation A (Pre-1980)",active; positive
same,mutagenic call,[9],active; positive
CCN(CCCl)CCCNc1c2ccccc2nc2c1ccc1ccccc12,mutagenic call,"Species/Cell Type: Chinese hamster ovary (CHO) cells, Assay Type: Forward gene mutation at the HPRT locus, Assay Code: CHO+D, Dose Response: With dose response, Evaluation Type: Evaluation A (Pre-1980)",active; positive
COC(=O)N/N=C/c1c[n+]([O-])c2ccccc2[n+]1[O-],mutagenic call,[3],active; positive
O[C@@H]1C=Cc2cc3ccc4cccc5ccc(c2[C@H]1O)c3c45,mutagenic call,"Species/Cell Type: Chinese hamster lung (V79) cells, Assay Type: Forward gene mutation at the HPRT or ouabain locus, Assay Code: V79-*, Activation: With metabolic activation, Evaluation Type: Evaluation A (Pre-1980)",inactive; negative
same,call,[8],no conclusion
same,mutagenic call,[9],active; positive
same,mutagenic call,[2],no conclusion
same,mutagenic call,"Species/Cell Type: Syrian hamster embryo (SHE) cells, Assay Type: Cell transformation, clonal assay, Assay Code: CTCT, Evaluation Type: Evaluation A (Pre-1980)",no conclusion
c1ccc2c3c(ccc2c1)-c1cccc2cccc-3c12,call,[1],active; positive
Nc1ccc(Cl)cc1N,call,[1],active; positive
COc1ccc2c3c4n(c2c1)[C@@H](C=C(C)C)OOC(C)(C)C[C@@H]4N1C(=O)[C@@H]2CCCN2C(=O)[C@]1(O)[C@H]3O,mutagenic call,[4],inactive; negative
same,mutagenic call,[2],no conclusion
Nc1nc(-c2cc([N+](=O)[O-])cs2)cs1,mutagenic call,[5],active; positive
O=C(CCl)CCl,mutagenic call,"Species/Cell Type: Drosophila melanogaster, Assay Type: Sex-linked recessive lethal gene mutation, Assay Code: SRLT, Evaluation Type: Evaluation A (Pre-1980)",no conclusion
same,mutagenic call,[5],active; positive
O=C(NO)c1ccccc1,mutagenic call,[5],active; positive
Cc1cccc2c1ccc1c3c(ccc12)C(=O)CC3,mutagenic call,[2],no conclusion
ClC(Br)Br,mutagenic call,[6],active; positive
same,mutagenic call,[7],active; positive
same,mutagenic call,"Species/Cell Type: Nonhuman, Assay Type: Sister-chromatid exchange (SCE) in vivo, Assay Code: SC3+D, Dose Response: With dose response, Evaluation Type: Evaluation B (Post-1980)",active; positive
CC1=C[C@H]2[C@@]3(O)[C@H](C)[C@@H](O)[C@]4(O)[C@H]([C@@H]3C=C(CO)C[C@]2(O)C1=O)C4(C)C,mutagenic call,[10],no conclusion
same,mutagenic call,[4],inactive; negative
O=C(O)CNC(=O)c1ccccc1,mutagenic call,"Species/Cell Type: Escherichia coli WP2, Assay Type: Tryptophan reverse gene mutation, Assay Code: WP2-*, Activation: With metabolic activation, Evaluation Type: Evaluation A (Pre-1980)",inactive; negative
same,mutagenic call,"Species/Cell Type: Escherichia coli WP2 UVRA, Assay Type: Tryptophan reverse gene mutation, Assay Code: WPU-*, Activation: With metabolic activation, Evaluation Type: Evaluation A (Pre-1980)",inactive; negative
CC[C@@]1(O)C[C@H](O[C@H]2C[C@H](NC)[C@H](O)[C@H](C)O2)c2c(cc3c(c2O)C(=O)c2c(O)cccc2C3=O)[C@H]1C(=O)OC,mutagenic call,[2],no conclusion
C=Cc1cn([C@H]2C[C@H](O)[C@@H](CO)O2)c(=O)[nH]c1=O,mutagenic call,"Species/Cell Type: Human lymphocytes, Assay Type: Sister-chromatid exchange (SCE) in vitro, Assay Code: SCL+, Evaluation Type: Evaluation B (Post-1980)",active; positive
same,mutagenic call,[7],active; positive
CCC(C)Br (configuration not stated),mutagenic call,[10],no conclusion
O=[Si]=O,mutagenic call,"Species/Cell Type: Nonhuman, Assay Type: Sister-chromatid exchange (SCE) in vitro, Assay Code: SC2T, Evaluation Type: Evaluation B (Post-1980)",no conclusion
